PubChem BioAssay AID248 (DTP/NCI, 2004)
Several values for one entry are separate records, joined by “and”; a condition that tells them apart may be missing. Equal entries are not always repeated. Toxic doses and inconclusive results are not listed.

System: L1210 leukemia ip in BDF1 mice, survival T/C
Experiment: NCI In Vivo Anticancer Drug Screen. Data for tumor model L1210 Leukemia (intraperitoneal) in B6D2F1 (BDF1) mice
Details: endpoint: mean survival time, higher = longer survival
Method in brief: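 Tumor was transplanted into mice, which were then dosed with test compound or vehicle alone. Survival was recorded for each group, and the treated figure was expressed relative to the control figure.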

[1] = dose: 100.0 mg/kg/injection, schedule: Q01DX009 (ip), vehicle: Klucel (hydroxypropylcellulose) (HPC)
[2] = dose: 100.0 mg/kg/injection, schedule: Q04DX003 (ip), vehicle: Klucel (hydroxypropylcellulose) (HPC)
[3] = dose: 200.0 mg/kg/injection, schedule: Q01DX009 (ip), vehicle: Klucel (hydroxypropylcellulose) (HPC)
[4] = dose: 200.0 mg/kg/injection, schedule: Q04DX003 (ip), vehicle: Klucel (hydroxypropylcellulose) (HPC)
[5] = dose: 400.0 mg/kg/injection, schedule: Q04DX003 (ip), vehicle: Klucel (hydroxypropylcellulose) (HPC)
[6] = dose: 100.0 mg/kg/injection, schedule: Q04DX002 (ip), vehicle: carboxymethylcellulose (CMC)
[7] = dose: 200.0 mg/kg/injection, schedule: Q04DX002 (ip), vehicle: carboxymethylcellulose (CMC)
[8] = dose: 400.0 mg/kg/injection, schedule: Q04DX002 (ip), vehicle: carboxymethylcellulose (CMC)
[9] = dose: 50.0 mg/kg/injection, schedule: Q01DX009 (ip), vehicle: Klucel (hydroxypropylcellulose) (HPC)
[10] = dose: 75.0 mg/kg/injection, schedule: Q04DX003 (ip), vehicle: Klucel (hydroxypropylcellulose) (HPC)
[11] = dose: 100.0 mg/kg/injection, schedule: Q01DX001 (ip), vehicle: saline
[12] = dose: 100.0 mg/kg/injection, schedule: Q04DX002 (ip), vehicle: Klucel (hydroxypropylcellulose) (HPC)
[13] = dose: 200.0 mg/kg/injection, schedule: Q04DX002 (ip), vehicle: Klucel (hydroxypropylcellulose) (HPC)
[14] = dose: 400.0 mg/kg/injection, schedule: Q04DX002 (ip), vehicle: Klucel (hydroxypropylcellulose) (HPC)
[15] = dose: 100.0 mg/kg/injection, schedule: Q01DX009 (ip), vehicle: saline with Tween-80
[16] = dose: 100.0 mg/kg/injection, schedule: Q04DX003 (ip), vehicle: saline with Tween-80
[17] = dose: 200.0 mg/kg/injection, schedule: Q01DX009 (ip), vehicle: saline with Tween-80
[18] = dose: 200.0 mg/kg/injection, schedule: Q04DX003 (ip), vehicle: saline with Tween-80
[19] = dose: 100.0 mg/kg/injection, schedule: Q01DX001 (ip), vehicle: carboxymethylcellulose (CMC)
[20] = dose: 200.0 mg/kg/injection, schedule: Q01DX001 (ip), vehicle: carboxymethylcellulose (CMC)
[21] = dose: 400.0 mg/kg/injection, schedule: Q01DX001 (ip), vehicle: carboxymethylcellulose (CMC)

COC(=O)CNC(=O)OCc1ccccc1 was tested, and the T/C [1] was 108 % of control, the T/C [2] was 101 % of control and the T/C [3] was 97 % of control. For the same compound, the T/C [4] was 101 % of control, the T/C (dose: 400.0 mg/kg/injection, schedule: Q01DX009 (ip), vehicle: Klucel (hydroxypropylcellulose) (HPC)) was 96 % of control and the T/C [5] was 98 % of control.

With C=CCc1ccc(OC(=O)Nc2ccc(C)cc2Cl)c(OC)c1 the T/C [6] was 93 % of control and 101 % of control, the T/C [7] was 96 % of control and 100 % of control and the T/C [8] was 97 % of control and 107 % of control.

Fc1ccc(CC(F)(F)F)cc1 was tested, and the T/C (dose: 100.0 mg/kg/injection, schedule: Q01DX001 (ip), vehicle: saline with Tween-80) was 97 % of control, the T/C (dose: 200.0 mg/kg/injection, schedule: Q01DX001 (ip), vehicle: saline with Tween-80) was 105 % of control and the T/C (dose: 400.0 mg/kg/injection, schedule: Q01DX001 (ip), vehicle: saline with Tween-80) was 98 % of control.

With O=C1c2ccccc2C(=O)c2c1ccc1c2CCCC1 the T/C [9] was 91 % of control, the T/C [1] was 94 % of control and the T/C [3] was 100 % of control.

CC[Si](Cl)(CC)CCCl was tested, and the T/C (dose: 100.0 mg/kg/injection, schedule: Q04DX003 (ip), vehicle: saline) was 98 % of control, the T/C (dose: 200.0 mg/kg/injection, schedule: Q04DX003 (ip), vehicle: saline) was 97 % of control and the T/C (dose: 400.0 mg/kg/injection, schedule: Q04DX003 (ip), vehicle: saline) was 117 % of control.

O=C1CCC2CC1CCC2=O was tested, and the T/C (dose: 18.75 mg/kg/injection, schedule: Q01DX009 (ip), vehicle: Klucel (hydroxypropylcellulose) (HPC)) was 101 % of control, the T/C (dose: 18.75 mg/kg/injection, schedule: Q04DX003 (ip), vehicle: Klucel (hydroxypropylcellulose) (HPC)) was 101 % of control and the T/C (dose: 37.5 mg/kg/injection, schedule: Q01DX009 (ip), vehicle: Klucel (hydroxypropylcellulose) (HPC)) was 101 % of control. For the same compound, the T/C (dose: 37.5 mg/kg/injection, schedule: Q04DX003 (ip), vehicle: Klucel (hydroxypropylcellulose) (HPC)) was 97 % of control, the T/C (dose: 75.0 mg/kg/injection, schedule: Q01DX009 (ip), vehicle: Klucel (hydroxypropylcellulose) (HPC)) was 98 % of control and the T/C [10] was 97 % of control.

For O=[N+]([O-])c1ccc(N=Nc2c3ccccc3c(O)n2CO)c([N+](=O)[O-])c1, the T/C [11] was 97 % of control, the T/C (dose: 200.0 mg/kg/injection, schedule: Q01DX001 (ip), vehicle: saline) was 97 % of control and the T/C (dose: 400.0 mg/kg/injection, schedule: Q01DX001 (ip), vehicle: saline) was 98 % of control.

In the case of CC12CCCCC1(O)CC(=O)CC2 (stereo unspecified), the T/C [12] is reported as 101 % of control, the T/C [13] is reported as 99 % of control and the T/C [14] is reported as 108 % of control.

In the case of COc1ccc(NC(=O)Oc2ccc3c(C)cc(=O)oc3c2)c(OC)c1, the T/C [15] is reported as 106 % of control, the T/C [16] is reported as 101 % of control and the T/C [17] is reported as 106 % of control. The T/C [18] was 116 % of control, the T/C (dose: 400.0 mg/kg/injection, schedule: Q01DX009 (ip), vehicle: saline with Tween-80) was 118 % of control and the T/C (dose: 400.0 mg/kg/injection, schedule: Q04DX003 (ip), vehicle: saline with Tween-80) was 106 % of control.

In the case of O=C1C=CC(=O)C2C3C=CC(C3)C12 (stereo unspecified), the T/C (dose: 25.0 mg/kg/injection, schedule: Q01DX009 (ip), vehicle: Klucel (hydroxypropylcellulose) (HPC)) is reported as 102 % of control, the T/C [9] is reported as 98 % of control and the T/C [1] is reported as 94 % of control and 102 % of control.

With N#Cc1nc2c3ccccc3c(N=NC(N)=S)c-2[nH]c1C#N the T/C (dose: 50.0 mg/kg/injection, schedule: Q04DX002 (ip), vehicle: Klucel (hydroxypropylcellulose) (HPC)) was 87 % of control, the T/C [12] was 91 % of control and the T/C [13] was 91 % of control.

SCc1ccc(Br)cc1 was tested, and the T/C [19] was 104 % of control, the T/C [20] was 98 % of control and the T/C [21] was 104 % of control.

In the case of COC1OC(OC)[CH]([Hg][Cl])C1OC (stereo unspecified), the T/C (dose: 3.13 mg/kg/injection, schedule: Q01DX009 (ip), vehicle: saline with Tween-80) is reported as 94 % of control, the T/C (dose: 6.25 mg/kg/injection, schedule: Q01DX009 (ip), vehicle: saline with Tween-80) is reported as 92 % of control and the T/C (dose: 6.25 mg/kg/injection, schedule: Q04DX003 (ip), vehicle: saline) is reported as 100 % of control. For the same compound, the T/C (dose: 12.5 mg/kg/injection, schedule: Q01DX009 (ip), vehicle: saline with Tween-80) was 91 % of control and the T/C (dose: 12.5 mg/kg/injection, schedule: Q04DX003 (ip), vehicle: saline) was 100 % of control.

For c1cc(Sc2ccc(OCC3CO3)cc2)ccc1OCC1CO1 (stereo unspecified), the T/C (dose: 100.0 mg/kg/injection, schedule: Q01DX001 (ip), vehicle: other) was 94 % of control, the T/C (dose: 200.0 mg/kg/injection, schedule: Q01DX001 (ip), vehicle: other) was 97 % of control and the T/C (dose: 400.0 mg/kg/injection, schedule: Q01DX001 (ip), vehicle: other) was 92 % of control.

COc1c2ccc(-c3ccccc3)oc-2cc(=O)c1C was tested, and the T/C [12] was 104 % of control, the T/C [13] was 96 % of control and the T/C [14] was 93 % of control.

CCOC(=O)c1ccc(NS(=O)(=O)c2ccc(Cl)cc2[N+](=O)[O-])cc1 was tested, and the T/C [19] was 99 % of control, the T/C (dose: 100.0 mg/kg/injection, schedule: Q01DX009 (ip), vehicle: carboxymethylcellulose (CMC)) was 112 % of control and 88 % of control and the T/C [6] was 96 % of control and 90 % of control. For the same compound, the T/C (dose: 100.0 mg/kg/injection, schedule: Q04DX003 (ip), vehicle: carboxymethylcellulose (CMC)) was 105 % of control, the T/C [20] was 101 % of control and the T/C (dose: 200.0 mg/kg/injection, schedule: Q01DX009 (ip), vehicle: carboxymethylcellulose (CMC)) was 88 % of control and 89 % of control. The T/C [7] was 93 % of control and 91 % of control, the T/C (dose: 200.0 mg/kg/injection, schedule: Q04DX003 (ip), vehicle: carboxymethylcellulose (CMC)) was 102 % of control and the T/C [21] was 103 % of control. For the same compound, the T/C (dose: 400.0 mg/kg/injection, schedule: Q01DX009 (ip), vehicle: carboxymethylcellulose (CMC)) was 88 % of control and 91 % of control, the T/C [8] was 93 % of control and the T/C (dose: 400.0 mg/kg/injection, schedule: Q04DX003 (ip), vehicle: carboxymethylcellulose (CMC)) was 93 % of control.

For Cn1ccoc1=NC1CCCCC1, the T/C [16] was 96 % of control and the T/C [18] was 95 % of control.

With CCOC(=O)CCCCCCCCC(=O)Nc1ccc([N+](=O)[O-])cc1O the T/C [2] was 103 % of control, the T/C [4] was 100 % of control and the T/C [5] was 101 % of control.

In the case of O=C(O)c1cccc(F)n1, the T/C [16] is reported as 91 % of control and the T/C [18] is reported as 89 % of control.

With NC(=O)NC(NC(=O)NC(NC(N)=O)c1ccco1)c1ccco1 (stereo unspecified) the T/C [2] was 102 % of control, the T/C [4] was 96 % of control and the T/C [5] was 88 % of control.

With c1ccc(-c2csc(NNc3nc(-c4ccccc4)cs3)n2)cc1 the T/C [2] was 95 % of control, the T/C [4] was 90 % of control and the T/C [5] was 112 % of control.

COC(=O)C(C(=O)OC)C(c1ccccc1)C(Br)(C(=O)OC)C(=O)OC (stereo unspecified) was tested, and the T/C [15] was 102 % of control and the T/C [17] was 94 % of control.

Cc1c(-[n+]2ccccc2)[nH]c2ccccc12 was tested, and the T/C (dose: 5.0 mg/kg/injection, schedule: Q01DX001 (ip), vehicle: saline) was 103 % of control, the T/C (dose: 10.0 mg/kg/injection, schedule: Q01DX001 (ip), vehicle: saline) was 103 % of control and the T/C (dose: 20.0 mg/kg/injection, schedule: Q01DX001 (ip), vehicle: saline) was 101 % of control. For the same compound, the T/C (dose: 40.0 mg/kg/injection, schedule: Q01DX001 (ip), vehicle: saline) was 104 % of control, the T/C (dose: 80.0 mg/kg/injection, schedule: Q01DX001 (ip), vehicle: saline) was 106 % of control and the T/C [11] was 92 % of control.

With Nc1nc(-c2ccccc2)c(CC(=O)O)s1 the T/C [2] was 93 % of control, the T/C [4] was 100 % of control and the T/C [5] was 96 % of control.

Cc1cc(N(CCOS(C)(=O)=O)CCOS(C)(=O)=O)ccc1C=Nc1cc(Br)c(O)c(Br)c1 was tested, and the T/C (dose: 25.0 mg/kg/injection, schedule: Q04DX003 (ip), vehicle: Klucel (hydroxypropylcellulose) (HPC)) was 107 % of control and 111 % of control, the T/C (dose: 50.0 mg/kg/injection, schedule: Q04DX003 (ip), vehicle: Klucel (hydroxypropylcellulose) (HPC)) was 109 % of control and the T/C [10] was 175 % of control.

In the case of COc1ccccc1OCCOCCN(C)C1CC(C)CCC1C(C)C (stereo unspecified), the T/C [2] is reported as 98 % of control.
